We go through 20 compounds from patent EP1247803A2, “Indolinone compounds suitable for modulation of protein kinases” (Sugen, Inc., priority 1996, dated 1998).

In one test the target is T1, FLK-1 receptor (Mus musculus, UniProt P35918).
T1 construct: expressed in transfected cells; host or cells: NIH3T3 C7#3
Nature of the test: FLK-1 ELISA (kinase activity of the FLK-1 receptor in FLK-1/NIH3T3 cells, VEGF stimulated). The class given is cell-based. In outline: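 FLK-1-expressing NIH3T3 C7#3 cells, starved overnight in 0.1% FBS medium, were treated with compounds at a 1:200 final dilution (0.5% DMSO) for 2 h at 37 °C, with VEGF stimulation. FLK-1 kinase activity was read by ELISA on anti-rabbit IgG plates using affinity-purified anti-FLK-1 antiserum.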

In the next test the target is PDGF-R (Homo sapiens, UniProt P09619). Nature of the test: PDGF-R ELISA. The class given is cell-based. From the text:
A PDGF-R ELISA is described in International Patent Publication No. WO 96/40116, published December 19, 1996 by Tang et al.
In general terms: In an ELISA, binding on a coated surface is turned into a signal by an enzyme label.

T1 sequence (P35918 20-1345): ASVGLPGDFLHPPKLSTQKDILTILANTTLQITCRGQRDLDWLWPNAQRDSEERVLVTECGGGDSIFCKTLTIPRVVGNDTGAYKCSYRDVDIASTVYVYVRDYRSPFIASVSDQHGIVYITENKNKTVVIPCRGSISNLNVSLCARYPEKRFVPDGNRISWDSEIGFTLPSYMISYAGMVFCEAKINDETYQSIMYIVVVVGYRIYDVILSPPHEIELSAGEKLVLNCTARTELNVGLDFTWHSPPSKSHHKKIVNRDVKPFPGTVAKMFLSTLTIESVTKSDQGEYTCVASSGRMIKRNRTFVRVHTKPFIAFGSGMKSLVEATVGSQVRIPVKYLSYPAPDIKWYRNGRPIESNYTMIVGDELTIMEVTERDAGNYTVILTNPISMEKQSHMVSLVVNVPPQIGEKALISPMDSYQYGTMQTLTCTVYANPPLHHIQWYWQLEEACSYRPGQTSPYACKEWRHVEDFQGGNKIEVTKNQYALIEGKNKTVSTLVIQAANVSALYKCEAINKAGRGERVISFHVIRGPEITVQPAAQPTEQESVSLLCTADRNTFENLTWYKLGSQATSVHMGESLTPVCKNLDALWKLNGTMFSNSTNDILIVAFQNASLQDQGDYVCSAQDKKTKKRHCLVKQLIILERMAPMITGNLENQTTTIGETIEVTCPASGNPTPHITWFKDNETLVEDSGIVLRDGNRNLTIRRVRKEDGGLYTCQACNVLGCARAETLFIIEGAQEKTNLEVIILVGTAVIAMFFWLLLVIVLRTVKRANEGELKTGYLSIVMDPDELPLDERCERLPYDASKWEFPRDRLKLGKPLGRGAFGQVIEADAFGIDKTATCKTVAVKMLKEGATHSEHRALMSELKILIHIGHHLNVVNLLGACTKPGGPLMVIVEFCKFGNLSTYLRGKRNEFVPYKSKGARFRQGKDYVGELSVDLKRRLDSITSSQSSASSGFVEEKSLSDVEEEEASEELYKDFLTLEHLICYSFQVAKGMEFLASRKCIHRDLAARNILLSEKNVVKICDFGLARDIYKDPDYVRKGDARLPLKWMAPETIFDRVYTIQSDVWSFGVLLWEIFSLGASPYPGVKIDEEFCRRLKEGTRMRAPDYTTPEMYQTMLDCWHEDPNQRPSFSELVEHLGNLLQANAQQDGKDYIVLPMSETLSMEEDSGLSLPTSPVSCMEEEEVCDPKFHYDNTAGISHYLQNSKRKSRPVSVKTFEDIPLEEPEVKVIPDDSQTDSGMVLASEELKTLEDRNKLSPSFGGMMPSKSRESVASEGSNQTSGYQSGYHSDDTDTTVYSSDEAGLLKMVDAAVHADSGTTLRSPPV
Sequence of PDGF-R (P09619 33-1106, species assumed): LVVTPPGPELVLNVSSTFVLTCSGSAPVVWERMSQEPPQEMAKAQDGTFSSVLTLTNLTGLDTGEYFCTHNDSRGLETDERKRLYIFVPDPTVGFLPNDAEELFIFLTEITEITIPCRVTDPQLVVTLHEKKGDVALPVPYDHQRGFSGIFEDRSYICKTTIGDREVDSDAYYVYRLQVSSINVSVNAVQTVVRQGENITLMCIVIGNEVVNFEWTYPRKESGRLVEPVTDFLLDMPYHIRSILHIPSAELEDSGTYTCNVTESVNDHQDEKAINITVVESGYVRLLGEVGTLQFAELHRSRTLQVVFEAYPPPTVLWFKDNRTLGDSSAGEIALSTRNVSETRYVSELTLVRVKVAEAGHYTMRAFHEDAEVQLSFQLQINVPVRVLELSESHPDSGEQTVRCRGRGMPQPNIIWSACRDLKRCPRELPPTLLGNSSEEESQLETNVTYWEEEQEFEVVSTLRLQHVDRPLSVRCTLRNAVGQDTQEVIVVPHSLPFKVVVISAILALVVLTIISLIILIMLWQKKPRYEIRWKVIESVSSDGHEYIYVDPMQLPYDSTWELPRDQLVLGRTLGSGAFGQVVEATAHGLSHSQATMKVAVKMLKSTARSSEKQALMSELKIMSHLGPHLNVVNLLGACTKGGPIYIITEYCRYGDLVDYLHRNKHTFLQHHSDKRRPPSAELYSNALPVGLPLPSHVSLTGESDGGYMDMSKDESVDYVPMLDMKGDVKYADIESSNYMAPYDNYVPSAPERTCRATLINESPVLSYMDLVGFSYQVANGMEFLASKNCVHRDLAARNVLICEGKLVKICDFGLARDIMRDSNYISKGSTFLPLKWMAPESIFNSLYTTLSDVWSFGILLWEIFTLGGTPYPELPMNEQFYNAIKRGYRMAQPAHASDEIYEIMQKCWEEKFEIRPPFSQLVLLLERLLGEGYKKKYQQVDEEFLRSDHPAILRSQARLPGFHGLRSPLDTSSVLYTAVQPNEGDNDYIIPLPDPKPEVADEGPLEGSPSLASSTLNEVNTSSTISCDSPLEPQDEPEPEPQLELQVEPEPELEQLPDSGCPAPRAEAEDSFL

As for `Cc1cc(C=C2C(=O)Nc3ccc(S(=O)(=O)Nc4ccc(C(F)(F)F)cc4)cc32)cc(C)c1O` [10722/E07], the “Fik Kinase %Inhibition” value on FLK-1 receptor was 24.3%. The “PDGF Kinase %Inhibition” value at PDGF-R worked out at 40.9%.
Taken in the same sequence, the figures for `O=C1Nc2ccc(I)cc2C1=Cc1ccc(F)cc1F` [10722/B06] were 13.9% and 21.5%.
With `O=C1Nc2c(Br)cc(Br)cc2C1=Cc1ccc(C(F)(F)F)cc1` [10722/A11], on FLK-1 receptor, the “Fik Kinase %Inhibition” value came out at 6.7%. The “PDGF Kinase %Inhibition” value on PDGF-R amounted to 21.5%.
As to `O=C1Nc2c(Br)cc(Br)cc2C1=Cc1c(O)cc(O)cc1O` [10722/A03], the “Fik Kinase %Inhibition” value at FLK-1 receptor was 6.7%. Moreover, at PDGF-R, the “PDGF Kinase %Inhibition” value worked out at 29.5%.
Consider `O=C1Nc2c(Br)cc(Br)cc2C1=Cc1csc([N+](=O)[O-])c1` [10722/A09], for which the “Fik Kinase %Inhibition” value on FLK-1 receptor was 7.3%. Moreover, on PDGF-R, the “PDGF Kinase %Inhibition” value is reported as 21.5%.
As to `O=C1Nc2ccc(S(=O)(=O)Nc3ccc(C(F)(F)F)cc3)cc2C1=Cc1c(O)cc(O)cc1O` [10722/E03], on FLK-1 receptor, the “Fik Kinase %Inhibition” value is on record as 10.7%. At PDGF-R, the “PDGF Kinase %Inhibition” value is reported as -7.2%.
For the compound `CNS(=O)(=O)c1ccc2c(c1)C(=Cc1cc(Cl)c(O)c(C(C)(C)C)c1)C(=O)N2` [10722/D08], the “Fik Kinase %Inhibition” value at FLK-1 receptor is listed as 29.1%. Further, the “PDGF Kinase %Inhibition” value on PDGF-R came out at 41.5%.
The corresponding values for `O=C1Nc2ccc(S(=O)(=O)Nc3ccc(C(F)(F)F)cc3)cc2C1=Cc1ccc(C(F)(F)F)cc1` [10722/E11] are 15.3% and 28.3%.
Taken in the same sequence, the figures for `O=C1Nc2ccc(S(=O)(=O)Nc3ccc(C(F)(F)F)cc3)cc2C1=Cc1csc([N+](=O)[O-])c1` [10722/E09] were 16.2% and 26.6%.
On to `CC(C)(C)c1cc(C=C2C(=O)Nc3ccc(I)cc32)cc([N+](=O)[O-])c1O` [10722/B02], for which the “Fik Kinase %Inhibition” value at FLK-1 receptor amounted to 10.1%. The “PDGF Kinase %Inhibition” value on PDGF-R was 28.9%.
Regarding `CC(C)(C)c1cc(C=C2C(=O)Nc3c(Br)cc(Br)cc32)cc([N+](=O)[O-])c1O` [10722/A02], the “Fik Kinase %Inhibition” value at FLK-1 receptor was determined as 0.8%. At PDGF-R, the “PDGF Kinase %Inhibition” value is 28.9%.
On to `CCCCN(CCCC)c1ccc(C=C2C(=O)Nc3ccc(I)cc32)cc1` [10722/B10], for which, at FLK-1 receptor, the “Fik Kinase %Inhibition” value was -0.9%. Moreover, the “PDGF Kinase %Inhibition” value on PDGF-R came to 20.3%.
The corresponding values for `CC(C)(C)c1cc(C=C2C(=O)Nc3c(Br)cc(Br)cc32)cc(Cl)c1O` [10722/A08] are 13.7% and 15.2%.
Take `CC(C)(C)c1cc(C=C2C(=O)Nc3ccc(S(=O)(=O)Nc4ccc(C(F)(F)F)cc4)cc32)cc(Cl)c1O` [10722/E08]: the “Fik Kinase %Inhibition” value at FLK-1 receptor turned out to be 18.6%. The “PDGF Kinase %Inhibition” value on PDGF-R is on record as 38.7%.
Taken in the same sequence, the figures for `CNS(=O)(=O)c1ccc2c(c1)C(=Cc1ccc(F)cc1F)C(=O)N2` [10722/D06] were 21.9% and 8.9%.
In the case of `CNS(=O)(=O)c1ccc2c(c1)C(=Cc1ccc(C(=O)O)cc1)C(=O)N2` [10722/D05], the “Fik Kinase %Inhibition” value at FLK-1 receptor came to 21.4%. Also, the “PDGF Kinase %Inhibition” value at PDGF-R is reported as 22.0%.
As to `CCCCN(CCCC)c1ccc(C=C2C(=O)Nc3ccc(S(=O)(=O)Nc4ccc(C(F)(F)F)cc4)cc32)cc1` [10722/E10], the “Fik Kinase %Inhibition” value at FLK-1 receptor is given as 3.1%. The “PDGF Kinase %Inhibition” value on PDGF-R is on record as 31.8%.
For the compound `CNS(=O)(=O)c1ccc2c(c1)C(=Cc1ccc([N+](=O)[O-])s1)C(=O)N2` [10722/D04], the “Fik Kinase %Inhibition” value at FLK-1 receptor came out at 23.5%. Also, the “PDGF Kinase %Inhibition” value on PDGF-R is on record as 15.7%.
With `O=C1Nc2c(Br)cc(Br)cc2C1=Cc1ccc([N+](=O)[O-])s1` [10722/A04], at FLK-1 receptor, the “Fik Kinase %Inhibition” value was found to be 13.4%. Besides, the “PDGF Kinase %Inhibition” value at PDGF-R is -0.9%.
On to `CNS(=O)(=O)c1ccc2c(c1)C(=Cc1cc([N+](=O)[O-])c(O)c(C(C)(C)C)c1)C(=O)N2` [10722/D02], for which the “Fik Kinase %Inhibition” value at FLK-1 receptor amounted to 30.7%. Further, the “PDGF Kinase %Inhibition” value at PDGF-R is given as 31.8%.
